Data: patent US8541670B2, “Compositions and methods for inhibiting tumor cell growth” (priority 2007, dated 2013)
Where no end group is shown, it is not given here.

What was measured:
TrkB = TrkB (Homo sapiens, UniProt Q16620); test: In vitro kinase assay TrkB; type: biochemical; conditions: ten times higher concentration than 0.1 μM
Procedure: As a specific substrate, the phosphorylation level of GSK-3[…] at Ser-9 was also evaluated. […] The decrease was specific to the AKT phosphorylation site on GSK-3[…] at Ser-9, since a change in the phosphorylation level of GSK-3[…] at Tyr-216 or GSK-3[…] at Tyr-279 was not observed. Moreover, the in vivo reduction of the phosphorylation of AKT substrates was more obvious at the injection site, since a significant change in the phosphorylation of AKT substrates in the frontal cortex or cerebellum between the two hemispheres was not observed. […] To test the specificity/selectivity of ZaTa as the inhibitor of AKT1 versus the other major kinases, a series of in vitro kinase assays was performed at IC50 for AKT1 and at ten times higher concentrations. A panel of the following 32 kinases was first tested in vitro using the active form of each kinase and a specific substrate: AKT2, AKT3, PKA, PKC[…], PKC, PI3K[…], PI3K[…], PI3K, SGK, PAK2, PAK3, SAPK2/p38, Abl, CaMKII, CDK1/cyclinB, CDK5/p35, CK1, CK2, CSK, GSK3[…], GSK3[…], JNK1[…]1, MAPK1, p70S6K, PDGFR[…], PDGFR[…], PDK1, PKG1[…], TrkB, JAK2, JAK3, and Syk. […] However, at ten times higher concentration, ZaTa inhibited AKT2 (63%), PI3K[…] (72%), p70S6K (64%), SGK (73%), PAK3 (83%), JAK3 (79%), TrkB (84%), and Abl (42%). […]

[1] = tested on: the other kinases assayed; test: In vivo selectivity, western blot of phosphorylated substrates, other kinases inhibited in vitro at higher concentrations; design: species or system mouse; conditions: versus DMSO hemisphere
Procedure: To analyze in vivo selectivity, ZaTa was injected into one hemisphere and DMSO in the other hemisphere, as above, and a series of western blot analyses was preformed with phospho-specific antibodies which recognize a phosphorylated substrate or each one of the kinases that ZaTa inhibited at higher concentrations in vitro. […] Given the high functional and structural homology between p70S6K and AKT, the in vivo inhibitory effect of ZaTa on p70S6K was contemplated. Furthermore, the in vivo effect of ZaTa on the phosphorylation levels of substrates for PKA, PKC, CDKs using phospho-specific antibodies recognizing the phosphorylated consensus sites of these kinases was analyzed. In contrast to the consistent decrease in phosphorylation of AKT substrates, significant changes in the phosphorylation level of PKA, PKC and CDKs substrates was not observed after in vivo injection of ZaTa.
Phosphorylation sites for kinases analyzed herein included Ser-235/236 S6 (a substrate for p70S6K), Tyr-207 CRKL (a substrate for Abl; Zipfel, et al. (2004) supra), Ser-241 PDK1 (a substrate for PI3K), Tyr-1022/1023 JAK1 (a substrate for JAK3; Wang, et al. (2003) supra), Ser-421 Huntingtin (a substrate for SGK; Rangone, et al. (2004) supra), Tyr-783 PLC (a substrate for TrkB; Middlemas, et al. (1994) supra), and Ser-338 cRaf (a substrate for PAK3; King, et al. (1998) supra).

[2] = tested on: non-proliferating neurons in primary cortical culture; test: TUNEL assay in primary cortical neuron culture; type: cell-based; conditions: 1 or 5 µM, 72-hour treatment, compared to control peptide
Procedure: It is now well-established that AKT protects against apoptosis through phosphorylation and inhibition of pro-apoptotic mediators such as BAD, FOXO family members and IKK-[…] (Datta, et al. (1999) Genes Dev. 13:2905-2927). […] Primary neurons were treated with DMSO, 1 µM or 5 µM of either ZaTa or the control peptide for a duration of 1, 3, 16, 24, 48 or 72 hours. The number of apoptotic cells was counted following the TUNEL assay. […] The increase in the number of apoptotic neurons following treatment with ZaTa was consistent with its potent intra-neuronal inhibition of AKT.

Sequence of TrkB (Q16620 32-822, species assumed): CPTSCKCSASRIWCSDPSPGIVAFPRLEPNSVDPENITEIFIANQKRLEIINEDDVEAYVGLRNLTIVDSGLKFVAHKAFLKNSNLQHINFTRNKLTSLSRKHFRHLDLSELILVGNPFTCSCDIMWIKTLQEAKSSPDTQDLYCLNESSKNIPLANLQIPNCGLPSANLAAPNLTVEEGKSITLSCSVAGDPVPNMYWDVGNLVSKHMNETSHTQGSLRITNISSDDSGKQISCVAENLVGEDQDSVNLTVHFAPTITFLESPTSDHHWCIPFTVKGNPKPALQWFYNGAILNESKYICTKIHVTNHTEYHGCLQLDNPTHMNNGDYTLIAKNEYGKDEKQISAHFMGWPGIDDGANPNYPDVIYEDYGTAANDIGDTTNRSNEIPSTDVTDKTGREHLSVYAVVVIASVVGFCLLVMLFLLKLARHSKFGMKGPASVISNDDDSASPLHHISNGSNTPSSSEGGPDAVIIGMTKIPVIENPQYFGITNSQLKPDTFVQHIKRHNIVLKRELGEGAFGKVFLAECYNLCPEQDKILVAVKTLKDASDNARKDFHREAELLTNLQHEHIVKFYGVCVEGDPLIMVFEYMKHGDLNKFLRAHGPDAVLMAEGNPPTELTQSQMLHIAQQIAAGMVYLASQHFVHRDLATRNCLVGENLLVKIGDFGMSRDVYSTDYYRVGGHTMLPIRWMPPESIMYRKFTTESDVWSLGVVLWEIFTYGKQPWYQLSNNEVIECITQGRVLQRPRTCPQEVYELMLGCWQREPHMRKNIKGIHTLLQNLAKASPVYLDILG

Sequence: AKRVKGRTWTLCGTPEY [ZaTa]
- inhibition of TrkB (TrkB): 84%
- in vivo inhibitory effects on the other kinases assayed [1]: No in vivo inhibitory effects
- number of TUNEL-positive cells [2]: marked dose-dependent increase
